Experimental data taken from US7767713B2, “Linoleic acid active agents for enhancing probability of becoming pregnant” (Palo Alto Investors, priority 2004, dated 2010).

Tests used:
[1] = system: female patients unable to achieve a successful pregnancy; test: Open-label oral treatment of infertility clinic patients; format: in vivo, human; conditions: oral form, 100 mg-5 g/day for three months, patients unable to achieve pregnancy for at least six months
Procedure: Several patients from an active infertility clinic population are selected for open-label treatment with linoleic acid. All female patients have been unable to achieve a successful pregnancy for at least six months. Linoleic acid is formulated into a pharmaceutical oral form at a dosage of 100 mg-5 g/day for three months.

[2] = system: uterine lining Th1/Th2 balance; test: Animal model, immune function of the uterine lining; format: in vivo; conditions: intravaginal injection, intrauterine injection or soaked vaginal sponge; versus sterile saline control animals
Procedure: An animal model is used to determine the effects of linoleic acid on immune function of the uterine lining. Linoleic acid is delivered via several different methods—direct injection of the linoleic acid formulation into the vagina, direct injection of linoleic acid formulation into the uterus, linoleic acid soaked into a sponge and placed into the vagina. Control animals have sterile saline instilled in place of linoleic acid. The animals are then sacrificed, and the uterine lining is analyzed for changes in immunologic activity.

SMILES: CCCCC/C=C\C/C=C\CCCCCCCC(=O)O [linoleic acid, Linoleic acid]
- Successful pregnancies [1]: Successful pregnancies are seen in at least one patient
- Changes in Th1/Th2 balance of uterine lining [2]: Changes in Th1/Th2 balance are seen
